Patent publication US8193175B2, “Ruthenium complexes for treating cancers” (Universite de Strasbourg, priority 2004, dated 2012)

Assays:
RDM4 line = assay: Proliferation test (UptiBlue) on RDM4 line; assay type: cell-based, mouse; conditions: 72 hours
Method: (§1) The products are tested on different cell lines. The cells used are RDM4 from a murine T lymphoma and a MOLT-4 line originating from an acute lymphoblastic leukemia. These cancer lines both express the p53 protein, unlike the HL-60 cells from a human promyelocytary leukemia where, following deletion of its gene, p53 is absent.
(§2) All of these cells are cultivated in RPMI 1640-Glutamax, supplemented by 10% calf foetal serum heat inactivated at 56° C. for 30 minutes, 1 mM sodium pyruvate, 1 mM non-essential amino acids and 50 μg/mL gentamycine (Life Technologies, Cergy Pontoise, France). The cultures are kept in an incubator at 37° C. with a moisture saturated atmosphere, with 5% CO2.
(§3) This test uses the UptiBlue reagent (Interchim, Montluçon, France), metabolised by the living cells. The cells are incubated on plates with 96 wells with 10^4 cells/well (200 μL) with the product and cultivated for 72 hours. Then, 20 μL UptiBlue are added to each well. After 3 hours incubation, the fluorescence of the samples contained in the plates is measured at 590 nm (excitation at 560 nm), using a Fluorolite 1000 microplate reader (Dynex technologies, Issy-Les-Moulineaux, France).
The potential anti-cancers are first of all selected on the RDM4 line. The effect of the different organo-ruthenium compounds upon the cell viability is firstly determined by a proliferation test as a function of the product concentration. The activity of the compounds derived from Ru is compared to that of cisplatinum. The exposure of the RDM4 cells to these derivatives is translated by a dose-dependent reduction in their proliferation. Therefore, the effect is dependent upon the organic complex which surrounds the Ru nucleus. The inhibition concentration of the growth of 50% of the cells (IC50) is determined for each of the products. […] The ruthenium derivatives showing an excessive IC50 (>50 μM) were eliminated from the biological study.

RDM4 [1] = assay: DNA fragmentation by marking with propidium iodure on RDM4; assay type: cell-based, mouse
Text: A second specific marking of apoptosis is the fragmentation of DNA between the nucleosomes. The fragmented DNA is located in the apoptotic bodies in the terminal phase of apoptosis. This DNA is hypodiploid and so less in quantity than that present in normal cells. It can be quantified by flux cytometry after permeabilisation of the cell membranes and marking with PI. The quantity of DNA in a normal cell is 2n in the G0/G1 phase and 4n in the G2 phase. Therefore, the sub-G0 DNA in a quantity of less than 2n has a weaker fluorescence intensity.
This phenomenon tends to diminish after 48 hrs of treatment. On the other hand, when the cells are treated with 45 μM, the formation of hypodiploid particles, visualised by the sub-G0 DNA content, is less than 10% at 24 hrs and exceeds 50% at 48 hrs such as to reach 60% at 72 hrs. […] The quantity of hypodiploid particles in the control cells remains less than 4% over this same period.

A172 glioblastoma cells = assay: Nucleus morphology and caspase 3 activation in A172 cells; assay type: cell-based, human; conditions: for nuclear condensation and fragmentation: 48 hrs treatment
Text: FIG. 2: A—The A172 cells were cultivated on glass slides. […] The cells were then fixed in 4% paraformaldehyde, permeabilised with 0.1% NP40 and marked with Hoechst dye (blue) and the anti-p20 antibody (active fragment of caspase 3, in red). The cells were then observed under the fluorescence microscope. B—Graphic representation of the number of cells with an apoptotic, fragmented or condensed nucleus. The bars are an average of two slides from one experiment representative of 3 carried out. C—In parallel, proteic extracts were prepared from cells treated with various drugs (cisplatinum 15 μM; CDR225 μM; CDR615 μM; CDR915 μM) and following denaturation the extracts were deposited on a !0% SDS-Page gel. After migration, the proteins were transferred onto nitrocellulose (Biorad, 0.2 μm) and the p20 fragment of the caspase 3 was detected by Western blot with an anti-p20 antibody (1/1000, R&D System).
(§4) The first step towards characterising the anticancerous effects of the compounds derived from ruthenium consists of testing their activity on tumoral lines kept in culture and comparing these effects on lines which have different characteristics as regards resistance to the anticancer treatments. Two lines of human glioblastomas (A172, HS683) and two lines of neuroblastomas (N2A and SH5Y) were used in order to test the cytostatic effects of the compounds according to the invention. Cisplatinum was chosen as the cytotoxic comparison agent. In a first approach, an MTT test was used to measure the activity of a mitochondrial enzyme, and this gives an estimate of the number of cells. Then, the cytotoxic effects of the compounds according to the invention were characterised in greater detail by analysing the morphology of the nucleus and the activation of caspase 3—two markers of cell apoptosis.

MOLT-4 = assay: Proliferation test (UptiBlue) on MOLT-4; assay type: cell-based, human; conditions: 72 hours, UptiBlue; unit inferred; read-out: IC50 (Molt-4)
Method: as §1, §2
as §3, with “France). […]” for “France).”

WTK1 = assay: Proliferation test (UptiBlue) on WTK1; assay type: cell-based, human; conditions: 72 hours, unit inferred
Method: as §2, §3
(§5) Compound 9 on other cell lines gives the following IC50: • 9 (NH32):3; 9 (Molt-4):3.8; 9 (WTK1): 3; 9 (U-937): 3. • RDM4: lymphoma, mouse AKR • TK6: human lymphoblastoid line • NH32: TK6 variant, not expressing p53 (“p53 knock-out”) • WTK1: other TK6 variant, expressing a p53 mutated gene • MOLT-4: human T lymphoblastic leukemia • U-937: human promonocyte leukemia Proliferation Test for the RDM4 Line with each Compound

RDM4 [2] = assay: Apoptosis by marking with Annexin-V on RDM4; assay type: cell-based, mouse
Method: Cell death is measured by a first specific marking of the apoptosis. The externalisation of the anionic phospholipids, normally located on the inner layer of the plasmic membrane, is one of the precocious markers of apoptosis (Martin et al, 1996). Annexin-V is a protein which fixes specifically onto the phosphatidylserines in the presence of calcium. When Annexin-V is coupled to a fluorochrome, it makes it possible to quantify the apoptotic cells by flux cytometry.
The control cells are treated with the equivalent volume of solvent (ethanol). […] After 72 hrs, the apoptosis rate is still as low as that of the control cells. On the other hand, with treatment at 45 μM, this rate already reaches 70% at 24 hrs and exceeds 99% after 48 hrs—a sign of significant apoptosis induction.

[3] = tested on: A172, HS683, N2A, and SH5Y; assay: MTT test on glioblastoma and neuroblastoma lines; assay type: cell-based, human; conditions: 48 hrs treatment; compared with cisplatinum
Method: FIG. 1: The A172 cells were cultivated on plates with 96 wells in DMEM medium with 10% calf serum. At 30% confluence, the cells were treated for 48 hrs with cisplatinum or the various compounds derived from ruthenium in the concentrations indicated (1, 5, 15, 50 μM). The quantity of cells present in the wells was evaluated by an MTT (MTT, Sigma) test of which the products of the reaction are quantified with an Elisa plate reader (Metertech, USA) (490-650 nm). The results obtained were related to the values of the control condition (100% viability). The graphs show an average of 8 points with the typical spacings over one experiment representative of 4 carried out. The thick black line indicates the IC50 for each graph.
TABLE 2: a summary of the results obtained on various cell lines and primary glial cultures. The experiments were carried out under the same conditions as those described for the A172 cells. Each IC50 is an indicative value obtained over 4 independent experiments.
as §4

NH32 = assay: Proliferation test (UptiBlue) on NH32; assay type: cell-based, human; conditions: 72 hours, unit inferred
Method: The influence of the p53 protein upon the effects induced by the products was determined by using the human lymphoblastoid line TK6 (p53 wild-type) and its NH32 variant of which the p53 gene was totally inactivated by double homologous recombination (Chuang et al, 1999). The TK6 cells originate from the American Tissue Culture Collection (ATGC, Manassas, Va., USA). The NH32 cells were supplied by H. L. Liber (Chuang et al, 1999).
as §2
as §3, with “France). […]” for “France).”

U-937 = assay: Proliferation test (UptiBlue) on U-937; assay type: cell-based, human; conditions: 72 hours, unit inferred
Method: as §2, §3, §5

Row | SMILES | IC50 (RDM4 line) | cell cycle distribution (propidium iodure) (RDM4 [1]; 15 μM, first two days) | hypodiploid particles (sub-G0 DNA content) (RDM4 [1]; 45 μM, 72 hrs) | nuclear condensation and fragmentation (A172 glioblastoma cells) | proteic levels of the active fragment of caspase 3 (Western blot) (A172 glioblastoma cells; cisplatinum 15 μM, CDR6 15 μM, CDR9 15 μM) | IC50 (MOLT-4) | IC50 (WTK1) | apoptosis rate (Annexin-V) (RDM4 [2]; 15 μM, up to 72 hrs) | apoptosis rate (Annexin-V) (RDM4 [2]; 45 μM, 24 hrs) | reduction of the number of tumoral cells (MTT) [3] | IC50 (NH32) | IC50 (U-937)
1 | CC#N.CC#N.CN(C)Cc1cccc[c]1[Ru+].F[P-](F)(F)(F)(F)F.c1ccc(-c2ccccn2)nc1 [Compound 13, [Ru-2-(CH2NMe2)—C6H4-(bipy) (NCMe)2]PF6] | 11 µM | – | – | – | – | – | – | – | – | – | – | –
2 | CC#N.CC#N.CC#N.CP(C)c1ccccc1.F[P-](F)(F)(F)(F)F.[Ru+][c]1ccccc1-c1ccccn1 [Compound 9, [Ru (C6H4-2-C5H4N) (PMe2Ph) (NCMe)3]PF6] | 12 µM | accumulation in the G0/G1 phase | 60% | induce nuclear condensation and fragmentation characteristic of apoptosis | increasing the proteic levels of the active fragment of caspase 3 | 3.8 µM | 3 µM | does not shown any effect | 70% | at a concentration similar to or lower than that of cisplatinum | 3 µM | 3 µM
3 | CC#N.CC#N.Cc1ccnc(-c2cc(C)ccn2)c1.F[P-](F)(F)(F)(F)F.[Ru+][c]1ccccc1-c1ccccn1 [Compound 12, [Ru(C6H4-2-C5H4N)(4,4′-dimethyl-2,2′-bipyridine)(NCMe)2]PF6] | 9 µM | – | – | induce nuclear condensation and fragmentation characteristic of apoptosis | – | – | – | – | – | at a concentration similar to or lower than that of cisplatinum | – | –
